The values below come from US20060040944A1, “5-Aza-7-deazapurine derivatives for treating Flaviviridae” (priority 2004, published 2006).

SMILES strings stand for the structures. Where two headings read alike, the source gives them in different places.

Data set [1] has as its system host cells of the DENV-2 test (not named). Description: Cytotoxicity assay (CC50), DENV-2 column. To be noted: read-out: DENV-2 CC50; concentration reducing cell number by 50%; cell line not named.
Data set [2] relates to BHK-21 cells.
The subject of data set [3] is BT cells.
The subject of data set [4] is Yellow Fever. In words: microbe, parasite or virus in culture. Format: cell-based, Yellow fever virus, vaccine strain 17D (YFV-17D).
Data set [5] relates to DENV-2. In words: Antiviral activity against DENV-2 (Table 2).
The subject of data set [6] is host cells of the West Nile test (not named). In words: Cytotoxicity assay (CC50), West Nile column. To be noted: read-out: West Nile CC50; concentration reducing cell number by 50%; cell line not named.
For data set [7], the system named is MT-4. In words: MT-4 cell test (Table 2). Format: cell-based. To be noted: MT-4 cells, no virus named.
Data set [8] has as its system West Nile. In words: Antiviral activity against West Nile virus (Table 2). To be noted: read-out: West Nile EC50.
Data set [9] can be described thus: Cytotoxicity assay (CC50), DENV-2 column.
Data set [10] is described as follows: Cytotoxicity assay (CC50), West Nile column.
Data set [11] in a line: in vitro. The following applies: cattle (Bos taurus).
The nature of data set [12]: in vitro. The following applies: hamster.
The subject of data set [13] is BVDV. Description: microbe, parasite or virus in culture. Format: cell-based. The following applies: Bovine viral diarrhea virus isolates and strains, MDBK, read-out: BVDV EC50.

In the case of `Nc1nc(=O)n2ccn([C@H]3C[C@H](O)[C@@H](CO)O3)c2n1` [2-amino-8-(β-D-2-deoxyribo-furanosyl)-imidazo[1,2-a]-s-triazin-4-one], the CC50 in [1], in data set [2], in data set [3] and in [6] was greater than 100 µM throughout. Also, the EC50 was greater than 100 µM in data set [4] (read-out: Yellow Fever EC50); greater than 100 µM in data set [5] (read-out: DENV-2 EC50, DENV-2); greater than 100 µM in data set [7]; greater than 100 µM in data set [8].
Regarding `Nc1nc(=O)n2ccn([C@@H]3O[C@H](CO)[C@@H](O)[C@H]3O)c2n1` [2-amino-8-(β-D-ribo-furanosyl)-imidazo[1,2-a]-s-triazin-4-one], the CC50 at 4 days in data set [9] and in data set [10] was greater than 100 µM throughout. The EC50 in data set [4] (Yellow fever virus, BHK-21, read-out: Yellow Fever EC50) was greater than 100 µM; in data set [5] (Dengue virus, DENV2, read-out: DENV-2 EC50), greater than 100 µM; in [7] (Homo sapiens, MT4), greater than 100 µM; in data set [8], greater than 100 µM; in [13] it was 31 µM. In addition, the CC50 in data set [11] and in [12] was greater than 100 µM each time.

What is called EC50 is the midpoint of the concentration-response curve.
